Target: casein kinase 1 epsilon (CK1 epsilon) (Homo sapiens (Human), UniProt P49674)
Assay: Test A: inhibitory activity on CK1 epsilon, casein phosphorylation assay on ATP-33P filter plate
Format: biochemical
Settings: IC50 values or IC50 ranges (result of several experiments), ATP 10 μM final
Description: The capacity of the compounds of the invention to inhibit the phosphorylation of casein by casein kinase 1 epsilon and/or delta may be evaluated according to the procedures described in document US 2005/0 131 012.
Test A: Inhibitory Activity on CK1 Epsilon Measured by Assay on an ATP-^33P Filter Plate
The effect of the compounds on inhibition of the phosphorylation of casein by the enzyme casein kinase 1 epsilon (CK1 epsilon) is measured, using a casein assay via filtration of ATP-^33P in vitro.
Casein kinase 1 epsilon (0.58 mg/ml) is obtained via fermentation and purification processes performed according to methods that are well known to those skilled in the art, or may also be obtained from Invitrogen Corporation™ (human CK1 epsilon).
The compounds are tested at five different concentrations so as to generate IC50 values, i.e. the concentration at which a compound is capable of inhibiting the enzymatic activity by 50%, or alternatively the percentage of inhibition at a concentration of 10 micromolar.
“U”-bottomed Falcon plates are prepared by placing 5 μL of solutions of the compounds according to the invention at concentrations of 10, 1, 0.1, 0.01 or 0.001 μM in different wells. The solutions of the compounds according to the invention at these various concentrations are prepared by diluting in a test buffer (Tris 50 mM pH 7.5, MgCl2 […], DTT 2 mM and EGTA 1 mM) a stock solution in DMSO at a concentration of 10 mM. Next, 5 μL of dephosphorylated casein are added to a final concentration of 0.2 μg/μL, 20 μL of CK1 epsilon to a final concentration of 3 ng/μL, and 20 μL of ATP-^33P to a final concentration of 0.02 μCi/μL mixed with cold ATP (10 μM final—approximately 2×10^6 CPM per well). The final total test volume per well is equal to 50 μL.
The “U”-bottomed Falcon® test plate mentioned above is vortexed, and then incubated at room temperature for 2 hours. After 2 hours the reaction is stopped by adding an ice-cold solution of 65 μL of cold ATP (2 mM) prepared in test buffer.
100 μL of the reaction mixture are then transferred from the “U”-bottomed Falcon® plate into Millipore® MAPH filter plates, preimpregnated with 25 μL of ice-cold 100% TCA.
The Millipore MAPH filter plates are agitated gently and are left to stand at room temperature for at least 30 minutes to precipitate the proteins.
After 30 minutes, the filter plates are sequentially washed and filtered with 2×150 μL of 20% TCA, 2×150 μL of 10% TCA and 2×150 μL of 5% TCA (6 washes in total per plate/900 μL per well).
The plates are left to dry overnight at room temperature. Next, 40 μL of Microscint-20 Packard® scintillation liquid are added per well and the plates are closed in a leaktight manner. The radiation emitted by each well is then measured for 2 minutes in a TopCount NXT Packard® scintillation counter, in which the values of CPM/well are measured.
The percentage inhibition of the capacity of the enzyme to phosphorylate the substrate (casein) is determined for each concentration of test compound. These inhibition data expressed as percentages are used to calculate the IC50 value for each compound compared with the controls.
The kinetic studies determined the KM value for ATP as being 21 μM in this test system.
Table 2 below gives the IC50 values or the IC50 inhibition ranges (result of several experiments) for the phosphorylation of Casein Kinase 1 Epsilon for a number of compounds according to the invention.

Chain of casein kinase 1 epsilon (CK1 epsilon) (P49674 whole entry): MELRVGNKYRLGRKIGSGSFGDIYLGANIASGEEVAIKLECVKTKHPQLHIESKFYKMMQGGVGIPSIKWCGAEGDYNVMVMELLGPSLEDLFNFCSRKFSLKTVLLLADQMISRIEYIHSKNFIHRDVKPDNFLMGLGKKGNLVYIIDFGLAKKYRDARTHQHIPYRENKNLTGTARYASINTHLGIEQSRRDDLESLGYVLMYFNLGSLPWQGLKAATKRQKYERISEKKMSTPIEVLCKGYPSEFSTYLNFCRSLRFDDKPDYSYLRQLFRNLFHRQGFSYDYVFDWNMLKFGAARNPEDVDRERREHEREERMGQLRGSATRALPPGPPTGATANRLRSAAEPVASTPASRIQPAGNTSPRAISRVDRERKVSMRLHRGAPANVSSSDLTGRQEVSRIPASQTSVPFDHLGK

IC50 [nM] | Compound
8 to 13 | CC(C)CNC(=O)N1CCn2c(Cl)c(-c3ccccc3)c(C(N)=O)c2C1 [Compound 59, 6-chloro-N^2-iso-butyl-7-phenyl-3,4-dihydropyrrolo[1,2-a]pyrazine-2,8(1H)-dicarboxamide]
1 to 17 | CC(C)(C)CCNC(=O)N1CCn2c(Cl)c(-c3ccccc3)c(C(N)=O)c2C1 [Compound 72, 6-chloro-N^2-(3,3-dimethylbutyl)-7-phenyl-3,4-dihydropyrrolo[1,2-a]pyrazine-2,8(1H)-dicarboxamide]
> 1 | C[C@@H]1CC(NC(=O)N2CCn3c(Cl)c(-c4cccc(F)c4)c(C(N)=O)c3C2)C[C@H](C)O1 (stereo partly drawn) [Compound 100, cis-6-chloro-N^2-(2,6-dimethyl-tetrahydro-2H-pyran-4-yl)-7-(3-fluorophenyl)-3,4-dihydropyrrolo[1,2-a]pyrazine-2,8(1H)-dicarboxamide]
45 | CC(C)(C)CC(C)(C)NC(=O)N1CCn2c(c(C(N)=O)c(-c3ccccc3)c2C2CC2)C1 [Compound 52, 6-cyclo-propyl-7-phenyl-N^2-(2,4,4-trimethylpentan-2-yl)-3,4-dihydropyrrolo[1,2-a]pyrazine-2,8(1H)-dicarboxamide]
49 | CC(C)CNC(=O)N1CCn2c(c(C(N)=O)c(-c3ccccc3)c2C2CC2)C1 [Compound 9, 6-cyclo-propyl-7-phenyl-N^2-(iso-butyl)-3,4-dihydropyrrolo[1,2-a]pyrazine-2,8(1H)-dicarboxamide]
1 | CC1(O)CCC(NC(=O)N2CCn3c(Cl)c(-c4cccc(F)c4)c(C(N)=O)c3C2)CC1 (stereo not drawn) [Compound 84, trans-6-chloro-7-(3-fluorophenyl)-N^2-(4-hydroxy-4-methyl-cyclo-hexyl)-3,4-dihydropyrrolo[1,2-a]pyrazine-2,8(1H)-dicarboxamide]
7 to 14 | NC(=O)c1c(-c2cccc(F)c2)c(Cl)n2c1CN(C(=O)NC1CCS(=O)(=O)CC1)CC2 [Compound 103, 6-chloro-N^2-(1,1-dioxydotetrahydro-2H-thiopyran-4-yl)-7-(3-fluorophenyl)-3,4-dihydropyrrolo[1,2-a]pyrazine-2,8(1H)-dicarboxamide]
17 to 28 | NC(=O)c1c(-c2ccccc2)c(C2CC2)n2c1CN(C(=O)NC1CCCCC1)CC2 [Compound 49, N^2-cyclo-hexyl-6-cyclo-propyl-7-phenyl-3,4-dihydropyrrolo[1,2-a]pyrazine-2,8(1H)-dicarboxamide]
34 to 78 | Cc1c(-c2ccc(Oc3ccccc3)cc2)c(C(N)=O)c2n1CCN(C(=O)NC(C)(C)C)C2 [Compound 5, N^2-tert-butyl-6-methyl-7-(4-phenoxyphenyl)-3,4-dihydropyrrolo[1,2-a]pyrazine-2,8(1H)-dicarboxamide]
2 to 4 | CC(C)(C)NC(=O)N1CCn2c(c(C(N)=O)c(-c3ccc(-c4ccccc4)cc3)c2C2CC2)C1 [Compound 15, 7-(biphenyl-4-yl)-N^2-tert-butyl-6-cyclo-propyl-3,4-dihydropyrrolo[1,2-a]pyrazine-2,8(1H)-dicarboxamide]

Second part, the compound before the results:

Compound | IC50 [nM]
CC(C)(C)ON=C1CCC(NC(=O)N2CCn3c(Cl)c(-c4cccc(F)c4)c(C(N)=O)c3C2)CC1 (stereo not drawn) [Compound 87, trans-6-chloro-7-(3-fluorophenyl)-N^2-(4-tert-butyloxyimino-cyclohexyl)-3,4-dihydropyrrolo[1,2-a]pyrazine-2,8(1H)-dicarboxamide] | < 1
CC(C)c1ccc(-c2c(C(N)=O)c3n(c2C2CC2)CCN(C(=O)NC(C)(C)C)C3)cc1 [Compound 13, N^2-tert-butyl-6-cyclo-propyl-7-[4-(iso-propyl)phenyl]-3,4-dihydropyrrolo[1,2-a]pyrazine-2,8(1H)-dicarboxamide] | 450 to 1000
Cc1cccc(-c2c(C(N)=O)c3n(c2C2CC2)CCN(C(=O)NC(C)(C)C)C3)c1 [Compound 11, N^2-tert-butyl-6-cyclo-propyl-7-(3-methylphenyl)-3,4-dihydropyrrolo[1,2-a]pyrazine-2,8(1H)-dicarboxamide] | 3 to 6
CC(C)(C)NC(=O)N1CCn2c(c(C(N)=O)c(-c3ccc(C(=O)NC4CC4)cc3)c2C2CC2)C1 [Compound 18, N^2-tert-butyl-6-cyclo-propyl-7-[4-(cyclo-propylcarbamoyl)phenyl]-3,4-dihydropyrrolo[1,2-a]pyrazine-2,8(1H)-dicarboxamide] | 963
Cc1nnc(-c2ccc(-c3c(C(N)=O)c4n(c3C3CC3)CCN(C(=O)NC(C)(C)C)C4)cc2)o1 [Compound 23, N^2-tert-butyl-6-cyclo-propyl-7-[4-(5-methyl-1,3,4-oxadiazol-2-yl)phenyl]-3,4-dihydropyrrolo[1,2-a]pyrazine-2,8(1H)-dicarboxamide] | 65
CC(C)(C)NC(=O)N1CCn2c(c(C(N)=O)c(-c3ccc(-n4cccn4)cc3)c2C2CC2)C1 [Compound 31, N^2-tert-butyl-6-cyclo-propyl-7-[4-(1H-pyrazol-1-yl)phenyl]-3,4-dihydropyrrolo[1,2-a]pyrazine-2,8(1H)-dicarboxamide] | 5 to 29
COc1cccc(-c2c(C(N)=O)c3n(c2C2CC2)CCN(C(=O)NC(C)(C)C)C3)c1 [Compound 32, N^2-tert-butyl-6-cyclo-propyl-7-(3-methoxyphenyl)-3,4-dihydropyrrolo[1,2-a]pyrazine-2,8(1H)-dicarboxamide] | 1 to 7
CC(C)(C)NC(=O)N1CCn2c(c(C(N)=O)c(-c3ccc(C(F)(F)F)cc3)c2C2CC2)C1 [Compound 24, N^2-tert-butyl-6-cyclo-propyl-7-[4-(trifluoromethyl)phenyl]-3,4-dihydropyrrolo[1,2-a]pyrazine-2,8(1H)-dicarboxamide] | 84
CC(C)(C)NC(=O)N1CCn2c(c(C(N)=O)c(-c3ccc(C#N)cc3)c2C2CC2)C1 [Compound 22, N^2-tert-butyl-7-(4-cyanophenyl)-6-cyclo-propyl-3,4-dihydropyrrolo[1,2-a]pyrazine-2,8(1H)-dicarboxamide] | 25
CC(C)(C)NC(=O)N1CCn2c(c(C(N)=O)c(-c3cccc(OCC4CC4)c3)c2C2CC2)C1 [Compound 33, N^2-tert-butyl-6-cyclo-propyl-7-[3-(cyclo-propylmethoxy)phenyl]-3,4-dihydropyrrolo[1,2-a]pyrazine-2,8(1H)-dicarboxamide] | 847
CC(C)(C)NC(=O)N1CCn2c(c(C(N)=O)c(-c3ccc(OCC#N)cc3)c2C2CC2)C1 [Compound 43, N^2-tert-butyl-7-[4-(cyanomethoxy)phenyl]-6-cyclo-propyl-3,4-dihydropyrrolo[1,2-a]pyrazine-2,8(1H)-dicarboxamide] | 24
CC(C)(C)NC(=O)N1CCn2c(c(C(N)=O)c(-c3ccc(OCC4CC4)cc3)c2C2CC2)C1 [Compound 37, N^2-tert-butyl-6-cyclo-propyl-7-[4-(cyclo-propylmethoxy)phenyl]-3,4-dihydropyrrolo[1,2-a]pyrazine-2,8(1H)-dicarboxamide] | 62
COc1ccc(-c2c(C(N)=O)c3n(c2C2CC2)CCN(C(=O)NC(C)C)C3)cc1 [Compound 8, 6-cyclo-propyl-7-(4-methoxyphenyl)-N^2-(iso-propyl)-3,4-dihydropyrrolo[1,2-a]pyrazine-2,8(1H)-dicarboxamide] | 221 to 273
CN(C)C(=O)c1cccc(-c2c(C(N)=O)c3n(c2C2CC2)CCN(C(=O)NC(C)(C)C)C3)c1 [Compound 17, N^2-tert-butyl-6-cyclo-propyl-7-[3-(dimethylcarbamoyl)phenyl]-3,4-dihydropyrrolo[1,2-a]pyrazine-2,8(1H)-dicarboxamide] | 958
CON(C)C(=O)c1ccc(-c2c(C(N)=O)c3n(c2C2CC2)CCN(C(=O)NC(C)(C)C)C3)cc1 [Compound 20, N^2-tert-butyl-6-cyclo-propyl-7-{4-[methoxy(methyl)carbamoyl]phenyl}-3,4-dihydropyrrolo[1,2-a]pyrazine-2,8(1H)-dicarboxamide] | 620

Reference: patent US9233965B2, “3,4-dihydropyrrolo[1,2-A]pyrazine-2,8(1H)-dicarboxamide derivatives, preparation thereof and therapeutic use thereof for diseases involving casein kinase 1 epsilon and/or casein kinase 1 delta” (SANOFI, priority 2010, dated 2016)
